Laboratory results from PubChem BioAssay (NCI).
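How tested: cells in 96-well plates exposed to compound for 48 hours at five concentrations. TGI is the concentration that stops growth completely.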

Legend:
Experiment in all cases: NCI anticancer screen, dose series, 48 h
OVCAR-8 ovarian = system: OVCAR-8 ovarian
MALME-3M melanoma = system: MALME-3M melanoma
SNB-19 CNS = system: SNB-19 CNS
K-562 leukemia = system: K-562 leukemia
A498 renal = system: A498 renal
NCI/ADR-RES ovarian = system: NCI/ADR-RES ovarian
SF-268 CNS = system: SF-268 CNS
IGROV1 ovarian = system: IGROV1 ovarian
SW-620 colon = system: SW-620 colon
M14 melanoma = system: M14 melanoma
SK-OV-3 ovarian = system: SK-OV-3 ovarian
HCC-2998 colon = system: HCC-2998 colon
HS 578T breast = system: HS 578T breast
RPMI-8226 leukemia = system: RPMI-8226 leukemia
CAKI-1 renal = system: CAKI-1 renal
SK-MEL-5 melanoma = system: SK-MEL-5 melanoma
HCT-116 colon = system: HCT-116 colon
SF-539 CNS = system: SF-539 CNS
SNB-75 CNS = system: SNB-75 CNS
EKVX NSCLC = system: EKVX NSCLC
UACC-257 melanoma = system: UACC-257 melanoma
SK-MEL-2 melanoma = system: SK-MEL-2 melanoma
HCT-15 colon = system: HCT-15 colon
NCI-H226 lung = system: NCI-H226 lung
MDA-MB-231 breast = system: MDA-MB-231 breast
786-0 renal = system: 786-0 renal
A549 NSCLC = system: A549 NSCLC
LOX IMVI melanoma = system: LOX IMVI melanoma
MDA-MB-435 = system: MDA-MB-435
DU-145 prostate = system: DU-145 prostate
NCI-H23 lung = system: NCI-H23 lung
COLO 205 colon = system: COLO 205 colon
SN12C renal = system: SN12C renal
NCI-H460 lung = system: NCI-H460 lung
SR leukemia = system: SR leukemia
CCRF-CEM leukemia = system: CCRF-CEM leukemia
MDA-N = system: MDA-N
SF-295 CNS = system: SF-295 CNS
HL-60(TB) leukemia = system: HL-60(TB) leukemia
SK-MEL-28 melanoma = system: SK-MEL-28 melanoma
MCF7 breast = system: MCF7 breast
MOLT-4 leukemia = system: MOLT-4 leukemia
BT-549 breast = system: BT-549 breast
U251 CNS = system: U251 CNS
PC-3 prostate = system: PC-3 prostate
TK-10 renal = system: TK-10 renal
RXF 393 renal = system: RXF 393 renal
UACC-62 melanoma = system: UACC-62 melanoma
ACHN renal = system: ACHN renal
HT29 colon = system: HT29 colon
NCI-H522 lung = system: NCI-H522 lung
KM12 colon = system: KM12 colon
UO-31 renal = system: UO-31 renal
OVCAR-5 ovarian = system: OVCAR-5 ovarian
T-47D breast = system: T-47D breast
OVCAR-3 ovarian = system: OVCAR-3 ovarian
OVCAR-4 ovarian = system: OVCAR-4 ovarian
HOP-92 NSCLC = system: HOP-92 NSCLC
HOP-62 NSCLC = system: HOP-62 NSCLC

Measured: TGI

CCOc1ccc(NC(=O)/C=C/c2ccco2)cc1
22 µM: MDA-MB-435
44.5 µM: HL-60(TB) leukemia
> 100 µM: OVCAR-8 ovarian | MALME-3M melanoma | SNB-19 CNS | K-562 leukemia | A498 renal | NCI/ADR-RES ovarian | SF-268 CNS | IGROV1 ovarian | SW-620 colon | M14 melanoma | SK-OV-3 ovarian | HCC-2998 colon | HS 578T breast | RPMI-8226 leukemia | CAKI-1 renal | SK-MEL-5 melanoma | HCT-116 colon | SF-539 CNS | SNB-75 CNS | EKVX NSCLC | UACC-257 melanoma | SK-MEL-2 melanoma | HCT-15 colon | NCI-H226 lung | MDA-MB-231 breast | 786-0 renal | A549 NSCLC | LOX IMVI melanoma | DU-145 prostate | NCI-H23 lung | COLO 205 colon | SN12C renal | NCI-H460 lung | SR leukemia | CCRF-CEM leukemia | MDA-N | SF-295 CNS | SK-MEL-28 melanoma | MCF7 breast | MOLT-4 leukemia | BT-549 breast | U251 CNS | PC-3 prostate | TK-10 renal | RXF 393 renal | UACC-62 melanoma | ACHN renal | HT29 colon | NCI-H522 lung | KM12 colon | UO-31 renal | OVCAR-5 ovarian

CCc1cccc(CC)c1Nc1nc(-c2ccccc2-c2ccccc2)cs1
> 100 µM: T-47D breast | MALME-3M melanoma | SNB-19 CNS | K-562 leukemia | A498 renal | SF-268 CNS | IGROV1 ovarian | SW-620 colon | M14 melanoma | OVCAR-3 ovarian | SK-OV-3 ovarian | OVCAR-4 ovarian | HCC-2998 colon | HS 578T breast | RPMI-8226 leukemia | CAKI-1 renal | SK-MEL-5 melanoma | HCT-116 colon | SF-539 CNS | SNB-75 CNS | EKVX NSCLC | UACC-257 melanoma | SK-MEL-2 melanoma | HCT-15 colon | MDA-MB-231 breast | 786-0 renal | A549 NSCLC | LOX IMVI melanoma | MDA-MB-435 | DU-145 prostate | NCI-H23 lung | COLO 205 colon | SN12C renal | NCI-H460 lung | HOP-92 NSCLC | SR leukemia | CCRF-CEM leukemia | MDA-N | HOP-62 NSCLC | SF-295 CNS | HL-60(TB) leukemia | SK-MEL-28 melanoma | MCF7 breast | MOLT-4 leukemia | U251 CNS | PC-3 prostate | TK-10 renal | RXF 393 renal | UACC-62 melanoma | ACHN renal | NCI-H522 lung | KM12 colon | UO-31 renal | OVCAR-5 ovarian
84.8 µM: BT-549 breast
